Values quoted from earlier work, collected in article PMC2821159 (Bioorganic & medicinal chemistry, 2009).

Tested on: protein kinases

## CNc1ncnc2c1c(-c1cccc(O)c1)cn2C(C)C [Compound 4, 3-(7-isopropyl-4-(methylamino)-7H-pyrrolo[2,3-d]pyrimidin-5yl)phenol]
  inhibition against protein kinases: poor inhibition
